Experimental data reported in patent publication US8668921B2, “Lipase inhibitors” (Suntory Holdings Limited, priority 2004, dated 2014).

Columns and labels:
[1] = target: T1, porcine pancreatic lipase (Sus scrofa, UniProt P00591); assay: Lipase inhibitory activity assay (4-MUO fluorescent substrate); type: biochemical; details: for IC50: porcine pancreatic lipase, 4-MUO substrate, 25° C., 30 minutes, pH 8.0
T1 construct: purchased Sigma
T1 sequence (P00591 1-450): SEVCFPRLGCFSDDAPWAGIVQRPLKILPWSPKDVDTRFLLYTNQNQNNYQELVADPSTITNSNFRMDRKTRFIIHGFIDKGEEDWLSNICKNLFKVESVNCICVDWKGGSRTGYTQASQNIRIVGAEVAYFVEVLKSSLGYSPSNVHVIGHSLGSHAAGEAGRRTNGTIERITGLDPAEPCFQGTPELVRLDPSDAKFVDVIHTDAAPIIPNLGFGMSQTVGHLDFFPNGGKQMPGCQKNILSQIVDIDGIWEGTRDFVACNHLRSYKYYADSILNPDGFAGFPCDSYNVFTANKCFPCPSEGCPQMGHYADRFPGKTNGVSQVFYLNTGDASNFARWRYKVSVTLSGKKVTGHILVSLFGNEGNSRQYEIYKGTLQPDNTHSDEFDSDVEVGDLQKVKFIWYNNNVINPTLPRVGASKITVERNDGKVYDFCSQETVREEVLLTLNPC
Experimental: A lipase activity assay was performed by using the oleate ester of fluorescent 4-methylumbelliferone (4-MUO) as a substrate to measure the fluorescence of 4-methylumbelliferone produced by reaction.
The buffer used for the assay was 13 mM Tris-HCl (pH 8.0) containing 150 mM NaCl, 1.36 mM CaCl2. The enzyme assay was performed using a 0.1 M solution of the substrate 4-MUO (Sigma) in DMSO diluted 1:1000 in said buffer and a solution of porcine pancreatic lipase (Sigma) prepared at 400 U/ml also in said buffer.
An enzymatic reaction was started by adding 25 μl of the lipase/buffer solution after 50 μl of the 4-MUO/buffer solution and 25 μl of distilled water (or an aqueous solution of each sample) were added and mixed in a 96-well microplate at 25° C. After the reaction was performed for 30 minutes, the reaction was stopped by adding 100 μl of a 0.1 M citrate buffer (pH 4.2) and the fluorescence of 4-methylumbelliferone produced by the reaction (excitation 355 nm, emission 460 nm) was measured using a fluorescence plate reader (Fluoroskan Asent CF from Labsystems).
The inhibitory activity of each test sample was determined as IC50(μM), i.e. the amount of the sample giving 50% inhibition of the activity of the control (distilled water).

[2] = reported in the literature; cited from earlier work

With `Oc1cc(O)c2c(c1)OC(c1ccc(O)c(O)c1)C(O)C2` (single isomer, unassigned; (+)) [(+)-catechin (5), (+)-catechin] the IC50 [1] was over 690000 nM.

In the case of `Oc1cc(O)c2c(c1)O[C@H](c1cc(O)c(O)c(O)c1)[C@@H](O)C2` [(+)-gallocatechin (7), (+)-gallocatechin], the IC50 [1] is reported as over 163000 nM.

Work on `O=C(O[C@@H]1Cc2c(O)cc(O)cc2O[C@@H]1c1ccc(O)c(O)c1)c1cc(O)c(O)c(O)c1` [(−)-epicatechin 3-O-gallate (2), (−)-epicatechin 3-O-gallate] yielded an IC50 [1] of 271 nM.

Compound `Oc1cc(O)c2c(c1)O[C@H](c1ccc(O)c(O)c1)[C@H](O)C2` [(−)-epicatechin (1), (−)-epicatechin] has an IC50 [1] of over 21600 nM.

In the case of `Oc1cc(O)c2c(c1)O[C@H](c1cc(O)c(O)c(O)c1)[C@H](O)C2` [(−)-epigallocatechin (3), (−)-epigallocatechin], the IC50 [1] is reported as over 20400 nM.

`O=C(O[C@@H]1Cc2c(O)cc(O)cc2O[C@H]1c1cc(O)c(O)c(O)c1)c1cc(O)c(O)c(O)c1` [(−)-gallocatechin 3-O-gallate (8), (−)-gallocatechin 3-O-gallate] showed an IC50 [1] of 349 nM.

For `OC1(c2ccc(Cl)cc2)c2ccccc2C2=NCCN21` (stereo not drawn) [Mazindol], the adverse side effects [2] is listed as “dry mouth, constipation, stomach discomfort and nausea/vomiting”.

In the case of `CCCCCCCCCCC[C@@H](C[C@@H]1OC(=O)[C@H]1CCCCCC)OC(=O)[C@H](CC(C)C)NC=O` [Xenical], the adverse side effects [2] is listed as “fatty stools, increased stool frequency, loose stools, diarrhea and abdominal pain”.

Compound `O=C(OC1Cc2c(O)cc(O)c(C(c3cc(O)c(O)c(O)c3)C(Cc3c(O)cc(O)cc3O)OC(=O)c3cc(O)c(O)c(O)c3)c2OC1c1cc(O)c(O)c(O)c1)c1cc(O)c(O)c(O)c1` (stereo not drawn) [assamicain A (9), assamicain A] has an IC50 [1] of 120 nM.

Work on `O=C(OC1Cc2c(O)cc(O)c(C(c3cc(O)c(O)c(O)c3)C(Cc3c(O)cc(O)cc3O)OC(=O)c3cc(O)c(O)c(O)c3)c2OC1c1cc(O)c(O)c(O)c1)c1cc(O)c(O)c(O)c1` (stereo not drawn) [assamicain B (10), assamicain B] yielded an IC50 [1] of 186 nM.

Work on `O=C1C=C2c3c(cc(O)c4c3O[C@H](c3ccc(O)c(O)c3)[C@@H](O)C4)OC23C[C@]1(O)O[C@H]1Cc2c(O)cc(O)cc2O[C@@H]13` [dehydro-dicatechin A (14), dehydro-dicatechin A] yielded an IC50 [1] of 3090 nM.

For `O=C(O[C@@H]1Cc2c(O)cc(O)cc2O[C@@H]1c1cc(O)c(O)c2c(=O)c(O)cc([C@H]3Oc4cc(O)cc(O)c4C[C@H]3O)cc12)c1cc(O)c(O)c(O)c1` [theaflavin 3′-O-gallate (16), theaflavin 3′-O-gallate], the IC50 [1] was 112 nM.

Compound `O=c1c(O)cc([C@H]2Oc3cc(O)cc(O)c3C[C@H]2O)cc2c([C@H]3Oc4cc(O)cc(O)c4C[C@H]3O)cc(O)c(O)c12` [theaflavin (15), theaflavin] has an IC50 [1] of 106 nM.

For `O=C(O[C@@H]1Cc2c(O)cc(O)cc2O[C@@H]1c1cc(O)c(O)c(O)c1-c1c([C@H]2Oc3cc(O)cc(O)c3C[C@H]2OC(=O)c2cc(O)c(O)c(O)c2)cc(O)c(O)c1O)c1cc(O)c(O)c(O)c1` [theasinensin A (11), theasinensin A], the IC50 [1] was 142 nM.

For `O=C(O[C@@H]1Cc2c(O)cc(O)cc2O[C@@H]1c1cc(O)c(O)c(O)c1-c1c([C@H]2Oc3cc(O)cc(O)c3C[C@H]2O)cc(O)c(O)c1O)c1cc(O)c(O)c(O)c1` [theasinensin B (12), theasinensin B], the IC50 [1] was 276 nM.

Compound `O=C(O[C@@H]1Cc2c(O)cc(O)cc2O[C@@H]1c1cc(O)c(O)c(O)c1-c1c([C@H]2Oc3cc(O)cc(O)c3C[C@H]2OC(=O)c2cc(O)c(O)c(O)c2)cc(O)c(O)c1O)c1cc(O)c(O)c(O)c1` [theasinensin D (13), theasinensin D] has an IC50 [1] of 98 nM.

In the case of “(−)-epigallocatechin 3-O-gallate [(−)-epigallocatechin 3-O-gallate (4)]”, the “lipase inhibitory activity (in words)” value ([1]; method of Example 1) is reported as “strongest activity among the major catechins” and the IC50 [1] is reported as 284 nM.
